≈ marks a conversion by molar mass, not a printed value. Where “and” joins values, the source holds several entries; their conditions need not be identical. Equal entries are not always repeated. Where two headings read alike, the source gives them in different places.
Key:
[1] = system: H9 cells; test: MTT cytotoxicity assay; assay type: cell-based, human; details: 4 days
Procedure: The cytotoxicity of M522 and M532 drugs against H9 cells was analyzed using MTT [3-(4,5-dimethylthiazol-2-yl)-2,5-diphenyltetrazolium bromide] assay (Sigma Chemical Co.) (Uckun et al., 1998). Briefly, exponentially growing H9 cells were seeded onto 96-well plates at a density of 3×10^4 cells/well and incubated for 24 h at 37° C. prior to drug exposure. On the day of treatment, a series Of M522 and M532 concentrations (1.25, 2.5, 5, 10, 20, 40, 80, and 160 μg/ ml) were used to test their cytotoxicity in H9 cells. Quadruplicate wells were used for each treatment. The cells were incubated with M522 and M532 for 4 days at 37° C. in a humidified 5% CO2 atmosphere. To each well, 50 μl of MTT (1 mg/ml final concentration) was added and the plates were incubated at 37° C. for 4 h to allow MTT to form formazan crystals by reacting with metabolically active cells. The formazan crystals were solubilized with DMSO. The absorbance of each well was measured in a microtiter reader at optical density 540 nm. The reaction is specific, no significant amounts of formazan can be detected with dead cells.

[2] = system: HIV-1IIIBA17 and HIV-1L10R/M461/L63P/V82T/184V; test: HIV replication in infected H9 cells, HIV/p24 monoclonal antibody assay; assay type: cell-based; details: Human immunodeficiency virus 1, H9, read-out: IC50 against HIV replication
Procedure: The following cells and virus strains were obtained from the AIDS Research and Reference Regent Program, Division of AIDS, National Institute of Allergy and Infectious Diseases: H9 cells, virus strains of HIV-1IIIBA17, a variant resistant to RT nonnucleotide inhibitors and HIV-1L10R/M461/L63P/V82T/184V, a protease inhibitor resistant virus, as well as viral strains HTLV-IIImn, HIV-1RTMF and HTLV-IIIB. Virus-infected H9 cells were cultured in the presence of different concentrations of M522 and M532 and viral replication was assayed using the HIV/p24 monoclonal antibody assay.
The inhibitory effect of M522 and M532 against HIV replication was further examined using HIV-1IIIBA17, a variant resistant to RT nonnucleotide inhibitors and HIV-1L10R/M461/L63P/V82T/184V, a protease inhibitor resistant virus, as testing viruses in the presence of a variety of drug concentrations in infected H9 cells.
FIG. 7A graphically illustrates the effect of M522 and M532 on HIV-1 replication. FIG. 7A illustrates the dose-dependent inhibition of HIV-1 replication in H9 cells infected with HIV-1IIIBA17 and HIV-1L10R/M461/L63P/V82T/184V viruses in the presence of different drug concentrations of M522 and M532.

[3] = biological target: HIV-1 integrase (Human immunodeficiency virus type 1 group M subtype B, UniProt P12497); test: HIV-1 integrase 3'-end processing assay; assay type: biochemical
Procedure: The HIV-1 integrase assay utilized in testing described below used a DNA substrate consisting of a DNA sequence derived from the U5 end of HIV-1 LTR. It was prepared by annealing oligonucleotide U5V1 (5′-[…]) with its complementary strand U5V2 (3′-[…]). The U5V1 strand was labeled at the 5′-end with [γ-^32P] ATP using T4 polynucleotide kinase as described previously (Kamata et al., 1994). The standard reaction mixture included reaction buffer (40 mM HEPES, pH 7.5, 20 mM MnCL2, 60 mM NaCl, 20 mM DTT and 0.1% Nonidet-P40) and HIV-1 integrase (NIH AIDS Research and Reference Reagent Program). To assay for 3′-end processing, the labeled substrate was incubated with the reaction mixture for 60 minutes at 37° C. An equal volume of stop solution (95% formamide, 30 mM EDTA, 0.1% xylene cyanol, 0.1% bromophenol blue) was added to each reaction and the samples were heated to 95°′ C. for 5 minutes to denature the DNA. The samples were then fractionated by electrophorsis on a 15% denaturing polyacrylamide gel. The 3′-end processing activity was monitored by the appearance of a radioactive oligonucleotides product (33 nt), shortened by two nucleotides from the original substrate (35 nt). The products were visualized by autoradiography and quantitation was carried out by phosphorimaging.

[4] = system: HIV-1IIIBA17 variant; test: HIV-1 replication in H9 cells, p24 antigen assay; assay type: cell-based; details: for inhibition at 1.25 µg/mL / inhibition at 2.5 µg/mL / inhibition at 5 µg/mL / inhibition at 10 µg/mL / inhibition at 20 µg/mL / inhibition at 40 µg/mL / inhibition at 80 µg/mL: Human immunodeficiency virus 1, H9; for IC50: Human immunodeficiency virus 1, H9, 192 h, read-out: IC50, HIV-1 replication
Procedure: (§1) Inhibitory activity of M522 and M532 against the replication of four different HIV-1 strains was tested in this example. Two of the strains were drug-resistant virus isolates (HIV-1RTMF resistant against AZT and HIV-1IIIBA17 variant resistant against inhibition by RT nonnucleotide inhibitors) and the other two were primary isolates (HTLV-IIIMN and HTLV-IIIB).
(§2) On the day before infection, H9 cells were subcultured at 1–2×10^5 cells/ml and on the day of the infection, cells were pelleted by centrifugation at room temperature for 10 minutes. The pellet was then resuspended with 1 ml of each strain according to the virus titer. The mixtures were incubated at 37 ° C. in CO2 incubator for 2 hours. The cells were then washed two times with PBS and then two times with the culture medium (RPMI 1640). The cells were resuspended with fresh medium and plated in 96 well plates. Every 3–4 days after infection, cells were sub-cultured and supernatant was saved to assay for virus production.
(§3) The activity of M522 against the four strains were tested at various drug concentrations of 80, 40, 20, 10, 5, 2.5, 1.25, and 0 μg/ml. After 8 days, the infection of the cells was detected by using HIV-1 p24 antigen assay, which is an enzyme immunoassay (EIA, or enzyme-linked immunosorbent assay) developed for detection and quantitation of the HIV-1 p24 core protein.

[5] = system: HTLV-IIIMN; test: HIV-1 replication in H9 cells, p24 antigen assay; assay type: cell-based; details: for IC50: Human immunodeficiency virus 1, 192 h, H9 cells, 8 days; for inhibition at 1.25 µg/mL: Human immunodeficiency virus 1, H9, 1.25 μg/ml; for inhibition at 2.5 µg/mL: Human immunodeficiency virus 1, H9, 2.5 μg/ml; for inhibition at 5 µg/mL: Human immunodeficiency virus 1, H9, 5.0 μg/ml; for inhibition at 10 µg/mL: Human immunodeficiency virus 1, H9, 10.0 μg/ml; for inhibition at 20 µg/mL: Human immunodeficiency virus 1, H9, 20.0 μg/ml; for inhibition at 40 µg/mL: Human immunodeficiency virus 1, H9, 40.0 μg/ml; for inhibition at 80 µg/mL: Human immunodeficiency virus 1, H9, 80.0 μg/ml
Procedure: as §1, §2, §3

[6] = system: HIV-1RTMF; test: HIV-1 replication in H9 cells, p24 antigen assay; assay type: cell-based; details: for inhibition at 1.25 µg/mL / inhibition at 2.5 µg/mL / inhibition at 5 µg/mL / inhibition at 10 µg/mL / inhibition at 20 µg/mL / inhibition at 40 µg/mL / inhibition at 80 µg/mL: Human immunodeficiency virus 1, H9; for IC50: Human immunodeficiency virus 1, H9, 192 h, read-out: IC50, HIV-1 replication
Procedure: as §1, §2, §3

[7] = system: HTLV-IIIB; test: HIV-1 replication in H9 cells, p24 antigen assay; assay type: cell-based; details: for IC50: Human immunodeficiency virus 1, 192 h, H9 cells, 8 days; for inhibition at 1.25 µg/mL: Human immunodeficiency virus 1, H9, 1.25 μg/ml; for inhibition at 2.5 µg/mL: Human immunodeficiency virus 1, H9, 2.5 μg/ml; for inhibition at 5 µg/mL: Human immunodeficiency virus 1, H9, 5.0 μg/ml; for inhibition at 10 µg/mL: Human immunodeficiency virus 1, H9, 10.0 μg/ml; for inhibition at 20 µg/mL: Human immunodeficiency virus 1, H9, 20.0 μg/ml; for inhibition at 40 µg/mL: Human immunodeficiency virus 1, H9, 40.0 μg/ml; for inhibition at 80 µg/mL: Human immunodeficiency virus 1, H9, 80.0 μg/ml
Procedure: as §1, §2, §3

O=C(/C=C/c1ccc(O)c2c1[C@H](C(=O)O)[C@@H](c1ccc(O)c(O)c1)O2)O[C@H](Cc1ccc(O)c(O)c1)C(=O)O [M522, 4-{2-[1-carboxy-2-(3,4-dihydroxy-phenyl)-ethoxycarbonyl]-vinyl}-2-(3,4-dihydroxy-phenyl)-7-hydroxy-2,3-dihydro-benzofuran-3-carboxylic acid]
CC100; cells remained viable at highest concentration tested [1]: > 297 µM
IC50 [2]: 1.5 µg/mL and 2.7 µM
IC50 ([3]; read-out: IC50, inhibition of HIV-1 integrase 3' processing activity (converted)): 836 nM and 830 nM
inhibition at 1.25 µg/mL [4]: 51.2%
inhibition at 2.5 µg/mL [4]: 53.6%
inhibition at 5 µg/mL [4]: 76.8%
inhibition at 10 µg/mL [4]: 85%
inhibition at 20 µg/mL [4]: 90.2%
inhibition at 40 µg/mL [4]: 100%
inhibition at 80 µg/mL [4]: 100%
IC50 [4]: 1.5 µg/mL (≈ 2.79 µM)
IC50 [5]: 9 µg/mL (≈ 16.7 µM)
inhibition at 1.25 µg/mL [5]: 7.7%
inhibition at 2.5 µg/mL [5]: 21.8%
inhibition at 5 µg/mL [5]: 30%
inhibition at 10 µg/mL [5]: 51.9%
inhibition at 20 µg/mL [5]: 72.1%
inhibition at 40 µg/mL [5]: 77.3%
inhibition at 80 µg/mL [5]: 88.4%
inhibition at 1.25 µg/mL [6]: 26.2%
inhibition at 2.5 µg/mL [6]: 47.7%
inhibition at 5 µg/mL [6]: 78.6%
inhibition at 10 µg/mL [6]: 83.4%
inhibition at 20 µg/mL [6]: 95.5%
inhibition at 40 µg/mL [6]: 98.2%
inhibition at 80 µg/mL [6]: 100%
IC50 [6]: 2.7 µg/mL (≈ 5.01 µM)
IC50 [7]: 11 µg/mL (≈ 20.4 µM)
inhibition at 1.25 µg/mL [7]: 31.4%
inhibition at 2.5 µg/mL [7]: 42.1%
inhibition at 5 µg/mL [7]: 45.9%
inhibition at 10 µg/mL [7]: 47.3%
inhibition at 20 µg/mL [7]: 62%
inhibition at 40 µg/mL [7]: 82.4%
inhibition at 80 µg/mL [7]: 94.5%

O=C(/C=C/c1ccc(O)c2c1[C@H](C(=O)O[C@H](Cc1ccc(O)c(O)c1)C(=O)O)[C@@H](c1ccc(O)c(O)c1)O2)O[C@H](Cc1ccc(O)c(O)c1)C(=O)O [M532, 4-{2-[1-carboxy-2-(3,4-dihydroxy-phenyl)-ethoxycarbonyl]-vinyl}-2-(3,4-dihydroxy-phenyl)-7-hydroxy-2,3-dihydro-benzofuran-3-carboxylic acid 1-carboxy-2-(3,4-dihydroxy-phenyl)-ethyl ester]
CC100; cells remained viable at highest concentration tested [1]: > 223 µM
IC50 [2]: 1 µg/mL and 1.39 µM
IC50 ([3]; IC50, inhibition of HIV-1 integrase 3' processing activity): 487 nM and 450 nM
inhibition at 1.25 µg/mL [4]: 2%
inhibition at 2.5 µg/mL [4]: 21.8%
inhibition at 5 µg/mL [4]: 50%
inhibition at 10 µg/mL [4]: 53.6%
inhibition at 20 µg/mL [4]: 97.5%
inhibition at 40 µg/mL [4]: 97.7%
inhibition at 80 µg/mL [4]: 98.4%
IC50 [4]: 5 µg/mL (≈ 6.96 µM)
IC50 [5]: 5.5 µg/mL (≈ 7.65 µM)
inhibition at 1.25 µg/mL [5]: 8.3%
inhibition at 2.5 µg/mL [5]: 45.7%
inhibition at 5 µg/mL [5]: 47%
inhibition at 10 µg/mL [5]: 57.2%
inhibition at 20 µg/mL [5]: 87%
inhibition at 40 µg/mL [5]: 90%
inhibition at 80 µg/mL [5]: 94.1%
inhibition at 1.25 µg/mL [6]: 20.8%
inhibition at 2.5 µg/mL [6]: 38.7%
inhibition at 5 µg/mL [6]: 44.2%
inhibition at 10 µg/mL [6]: 73.6%
inhibition at 20 µg/mL [6]: 90.4%
inhibition at 40 µg/mL [6]: 95%
inhibition at 80 µg/mL [6]: 98.3%
IC50 [6]: 5.6 µg/mL (≈ 7.79 µM)
IC50 [7]: 11 µg/mL (≈ 15.3 µM)
inhibition at 1.25 µg/mL [7]: 4.7%
inhibition at 2.5 µg/mL [7]: 16.1%
inhibition at 5 µg/mL [7]: 20.1%
inhibition at 10 µg/mL [7]: 34.5%
inhibition at 20 µg/mL [7]: 90.8%
inhibition at 40 µg/mL [7]: 96.2%
inhibition at 80 µg/mL [7]: 96.8%

Source: US7071227B2, “Antiviral compositions and methods of use” (The Johns Hopkins University, priority 2000, dated 2006)
